Entries after “also recorded” stand apart in the source; their conditions may differ.
Legend:
[1] = target: T1, human PPARγ LBD (residues 206-477) (Homo sapiens, UniProt P37231); assay: Stargazer thermostabilization assay; format: binding; details: 0.2 mg/ml PPARγ LBD, heated to 80° C.
T1 construct: human PPARγ LBD (residues 206-477), expressed in pRSET; His tag (implied by Ni-NTA purification and the pRSET vector); made in house; host or cells: E. coli BL21 codon plus (pRSET)
T1 sequence (P37231 206-477 isoform P37231-2): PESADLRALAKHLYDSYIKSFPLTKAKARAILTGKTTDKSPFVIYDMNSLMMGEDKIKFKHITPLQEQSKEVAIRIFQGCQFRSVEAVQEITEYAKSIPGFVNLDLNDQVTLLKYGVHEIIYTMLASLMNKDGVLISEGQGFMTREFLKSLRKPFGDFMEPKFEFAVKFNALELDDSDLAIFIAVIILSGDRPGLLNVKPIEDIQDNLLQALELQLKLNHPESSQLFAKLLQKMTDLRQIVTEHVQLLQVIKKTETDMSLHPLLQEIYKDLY

[2] = tested on: diet-induced obese C57BL/6J male mice; assay: Diet-induced-obese (DIO) mouse study; format: in vivo
Method: Mouse-based biomedical research was performed by the Jackson Laboratory to test the efficacy of idebenone in a diet-induced-obese (DIO) mouse model and approved by the Institutional Animal Care and Use Committee (IACUC). To test the efficacy of idebenone in a db/db mouse model experiments were performed at the Univerity of Torotno and were approved by the Animal Care Committee at the University of Toronto.
DIO study: Forty four (44) diet-induced obese C57BL/6J male mice (started on high fat diet at the age of 6 weeks) were used at 16 wks of age. The mice were ear notched for identification using the standard mouse ID format. Mice were housed at a density of 3-4 per cage in polycarbonate cages, which were both individually and positively ventilated. Bed-o'Cobs® corn cob bedding was provided and was changed every two weeks or as needed.
The animal room was lighted entirely with artificial fluorescent lighting on controlled 12 hr light/dark cycle (6 a.m. to 6 p.m. light). The normal temperature and relative humidity ranges in the animal rooms were maintained at 22±4° C. and 50±15%, respectively. The animal room was set for 15 air exchanges per hour. Filtered tap water acidified to a pH of 2.5 to 3.1 was provided ad libitum. High fat diet (60 kcal %) was provided ad libitum. Following a 2 week acclimation, 32 mice were chosen based on desired body weight range. Remaining mice were euthanized. Mice were randomized by body weight into four treatment groups (n=8) by body weight and non-fasting blood glucose taken three days prior to the start of dosing. Body weights, non-fasting blood glucose, and insulin were measured before dosing. Dosing occurred for 5 days. Fasting blood glucose and insulin were measured at the end of dosing (mice were fasted overnight on day 5, and insulin and blood glucose was measured on day 6). Mice were euthanized by CO2 euthanasia. An aliquot of whole blood was processed to measure insulin.

PPARα = target: T2, PPARα (Homo sapiens, UniProt Q07869); assay: PPARα ligand trap zebrafish GFP reporter assay; format: in vivo; parameters: pLT PPARα (aa 178-468) and pLT PPAR γ (aa 188-477) lines; expressed in transfected cells; host or cells: transgenic zebrafish embryos (ligand-trap line); details: transgenic embryos, 48 hpf
T2 sequence (Q07869 178-468): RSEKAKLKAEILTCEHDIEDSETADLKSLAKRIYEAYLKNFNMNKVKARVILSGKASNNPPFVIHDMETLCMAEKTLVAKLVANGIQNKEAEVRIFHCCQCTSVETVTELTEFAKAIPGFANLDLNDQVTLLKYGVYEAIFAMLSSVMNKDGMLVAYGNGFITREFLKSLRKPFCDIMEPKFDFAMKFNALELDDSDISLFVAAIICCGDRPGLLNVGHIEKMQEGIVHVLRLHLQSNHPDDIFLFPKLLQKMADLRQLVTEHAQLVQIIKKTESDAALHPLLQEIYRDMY
Method: Zebrafish were maintained at 28.5° C. on a 14/10 hour light/dark cycle and staged according to hours (h) or days (d) postfertilization. To generate pLT PPARα (aa 178-468) and pLT PPAR γ (aa 188-477) lines, plasmids were pre-digested with I-SceI (0.8 μg DNA, 1 μl I-SceI (New England Biolabs) 2 μl 10×I-SceI buffer, 1 μl BSA) for 20 min at 37° C. Digested DNA was adjusted with 0.1% phenol red. 4.6 nl of DNA solution was injected into the blastomeres of early one-cell stage embryos.
F0 fish were crossed with WT fish to identify germ-line transformed animals, as determined by agonist treatments and GFP expression. F1 progeny showing strong and consistent GFP responses were selected for F2 homozygote production. To avoid reporter GFP silencing of stable transgenic LT lines, homozygous fish showing strong and consistent GFP responses were selected for continued propagation of next generations.
PPARγ ligand trap zebrafish screens were performed under optimized conditions in 96-well format using the ImageXpress Velos Laser Scanning Cytometer. 1 or 2 dpf embryos were heat induced (28→37° C.) for 30 minutes, de-chorionated and then arrayed in 96-well plates (5 per well). […] Embryos were incubated at 28° C. for 14 h, anesthetized with Tricaine (Sigma, Cat. # A-5040) and then analyzed for GFP fluorescence using the ImageXpress Velos Laser Scanning Cytometer.

[3] = gavage twice daily for 5 days, 50 mpk idebenone, 30 mpk rosiglitazone

SMILES: COC1=C(OC)C(=O)C(CCCCCCCCCCO)=C(C)C1=O [Idebenone, 2-(10-hydroxydecyl)-5,6-dimethoxy-3-methyl-2,5-cyclohexadiene-1,4-dione]
- Shift of thermal denaturation transition temperature [1]: 5.5 °C
- Insulin resistance (HOMA-IR) ([2]; 50 mpk idebenone twice daily for 5 days): clear improvement
- Blood glucose levels [2, 3]: trend towards lowered blood glucose levels; also recorded: lowers
- Fasting insulin levels [2, 3]: reduction in fasting insulin levels; also recorded: lowers
- GFP response of PPARα LT line (PPARα): robust response; also recorded: dual agonists for PPARα and PPARγ
